The structures appear in SMILES notation.

In general, melting point refers to the temperature, or range, at which the solid turns liquid. As to `COc1ccc(C(O)(c2ccc(OC)cc2)C2CCNCC2)cc1`, the melting point lay within 153 to 155 °C. For `CCOC(=O)CC(=O)N1NCCCC1C(=O)OC(C)(C)C` (stereo not given), the melting point is 86 to 87 °C. In the case of `NC(c1ccccc1)C12CC(CN1Cc1ccccc1)C2` (stereo not given), the melting point was 63.5 to 64 °C. In turn, `CC(=O)NCc1nc(-c2csc(N=C(N)N)n2)cs1` returned a melting point of 255 to 256 °C.

As for `CN1Cc2c(C(=O)NN)ncn2-c2cccc(Cl)c2C1=O`, the melting point came out at 287 °C.

Turning to `CC(=O)SCC(Cc1ccccc1)C(=O)Nc1ccc(C(=O)OCc2ccccc2)cc1` (stereo not given), the melting point was 139 to 140 °C. In turn, `O=C1NCCc2c1c1cccc3c1n2CCO3` displayed a melting point of 298 to 300 °C. As for `CC1=CC(c2cccc(Cl)c2)C(c2cccs2)=NN1` (stereo not given), the melting point is 109 °C. Consider `CC1N=C(c2ccccc2Cl)c2cc([N+](=O)[O-])ccc2N(C)C1=O` (single isomer, unassigned; (+)), for which the melting point fell in the range of 156 to 158 °C. Turning to `O=[N+]([O-])c1ccc(CSc2cc(Cl)nc3c2ncn3C2OC(CO)C(O)C2O)cc1` (stereo not given), the melting point lay within 162 to 165 °C.

The compound `CC(C)c1cc(-c2ccc(F)c3ccccc23)nc(N(S(C)(=O)=O)S(C)(=O)=O)n1` displayed a melting point of 144 °C.

The compound `CCOc1cc2c(cc1OC)C(c1ccc(C(=O)N3CCOCC3)cc1)=N[C@@H]1CCOC[C@H]21` gave a melting point of 116 to 120 °C. On to `CCCN(Cc1ccc(C(=O)NC2Cc3ccccc3C2)cc1)C1CCc2ncsc2C1` (stereo not given), for which the melting point stood at 65 °C. In turn, `NC(=O)C1CCc2sc3ccccc3c2C1` (stereo not given) registered a melting point of 153 to 155 °C. `CC(O)C(Cc1cc(C(C)(C)C)c(O)c(C(C)(C)C)c1)C(C)O` (stereo not given) yielded a melting point of 102 to 105 °C. Regarding `COc1cccc(C=O)c1OCc1ccccc1`, the melting point was in the range of 41 to 43 °C. `CCCOc1ccccc1-c1nc2ccccc2c(=O)[nH]1` showed a melting point of 88 to 89 °C.

For `CN1CCN(C(=O)c2ccc(-c3cc(-c4c[nH]nc4-c4ccccn4)ccn3)cc2)CC1`, the melting point amounted to 142 °C. `COC(=O)C1=Cc2cc(Br)ccc2N2CCCC2C1` (stereo not given) had a melting point of 136 to 139 °C.

Turning to `COC(=O)C=C(Nc1ccc2[nH]c(=O)oc2c1)C(=O)OC`, the melting point is 172 °C. `COc1ccc(N2CCN(c3c(C)c(C)c4c(c3C)C(=O)C(C)(C)O4)CC2)cc1OC` returned a melting point of 153 to 154 °C. In the case of `CC(C)c1cc(Oc2ccc(Cl)cc2)nc(C(C)C)c1NC(=S)NC(C)(C)C`, the melting point lay within 165 to 167 °C. As to `CCc1ccccc1N1CCN(C(=O)Nc2nc3ccccc3nc2OC)CC1`, the melting point fell in the range of 191 to 193 °C. With `CN(C)n1nnc2cc3c(cc2c1=O)OC1CCCN1C3=O` (stereo not given) the figure was 180 °C. The figure for `CCOC(=O)CON(C)C(=S)Nc1ccc2c(c1)CCC2` is 69 to 71 °C; for `CS(=O)(=O)c1ccc(Oc2ccc3[nH]c(C4=NCC(CC(=O)O)S4)cc3c2)cn1` (stereo not given) it is 205 to 208 °C; for `Nc1ccc2c(OCc3nc4ccccc4s3)cccc2c1` it is 141 to 143 °C.

`C=CCC1C(=O)c2cc(OC)ccc2C2CCC3(C)C(O)CCC3C12` (stereo not given): the melting point fell in the range of 122 to 123 °C.

For the compound `Cc1cc(C)cc(Sc2c(C(C)C)c(=O)[nH]c(=O)n2CC2=CCC(CO)C2)c1` (stereo not given), the melting point lay within 147 to 148 °C. Regarding `Nc1ccc2[nH]c(CO)cc2c1`, the melting point was 159 to 160 °C.

With `CNc1cc(N2CCN(C(=O)C3CCN(S(=O)(=O)c4ccc(C(F)(F)F)cc4)CC3)CC2)ncn1`, the melting point was 237 to 238 °C. Take `CC1(C)Oc2ccsc2C(NC(=O)c2cccnc2)C1O` (stereo not given): the melting point fell in the range of 248 to 249 °C. `CCn1cc(C(=O)O)c(=O)c2cc(F)c(N3CCNC(c4cc(C)cs4)C3)cc21` (stereo not given) registered a melting point of 230 °C. The figure for `CSc1ccc(C(=O)CBr)cc1F` is 70 to 71 °C. On to `COc1nc(Cl)nc(NC#N)n1`, for which the melting point was above 260 °C. As to `CCN(CC(OC)OC)C(=O)Nc1ccc(C(O)(C(F)(F)F)C(F)(F)F)cc1`, the melting point was 138 to 140 °C. For `O=C(CBr)Nc1ccc(Br)cc1C(=O)O`, the melting point was in the range of 203 to 204 °C.

In turn, `C=COCCONC(=O)c1cc(F)c(F)c(F)c1Nc1ccc(I)cc1Cl` gave a melting point of 115 to 116 °C. Regarding `CCCOc1ccc(/C=C/c2nc3c([nH]2)c(=O)n(CCC)c(=O)n3CCC)cc1`, the melting point was 248 to 249 °C. `CC1NC(=O)NN=C1c1ccc(C#N)cc1` (stereo not given) showed a melting point of 268 to 269 °C.

Regarding `O=C(O)C(=O)c1ccc(OCCOc2ccc([N+](=O)[O-])cc2)cc1`, the melting point was in the range of 129 to 130 °C.

As for `O=C(O)CC1(c2ccc(Cl)cc2)CNC(=O)C1` (stereo not given), the melting point lay within 190 to 191 °C. Take `COC(=O)c1c(C(F)(F)F)noc1NS(=O)(=O)c1ccccc1`: the melting point lay in the range of 100 to 101 °C. In turn, `O=C(Nc1ccc2cc(CN3CCCC3)cnc2c1F)c1ccc(-c2ccccc2)cc1` came in with a melting point of 186 to 188 °C. As for `OCc1ccc2c(c1)C(C(Cl)(Cl)Cl)OC(C(Cl)(Cl)Cl)O2` (stereo not given), the melting point lay in the range of 134 to 136 °C. For `COC(=O)c1nc(S)n(C(c2ccccc2)c2ccccc2)c1C(=O)OC`, the melting point is 154 °C. As to `CC(=O)Nc1nc(/C=C/c2ccc([N+](=O)[O-])cc2)c(-c2ccc(S(C)(=O)=O)cc2)s1`, the melting point lay within 294 to 295 °C. As to `CCCc1c(C(=O)c2ccc(OS(=O)(=O)c3ccc(C)cc3)cc2)c2ccccn2c1C(C)=O`, the melting point fell in the range of 125 to 126 °C. On to `CC(C)(C)NC(=O)c1nn(-c2cc(F)c(F)cc2F)c2c1C1CCC2C1` (stereo not given), for which the melting point was 127 to 130 °C.

`Cc1ccc(C(NC2CCNCC2)(Oc2ccc(OCc3ccccc3)cc2)C(C)O)nc1` (stereo not given) registered a melting point of 123 to 125 °C. As to `COc1cc(C=CC(=O)Nc2cnc3ccc(Cl)cc3c2-c2ccccc2C)cc(OC)c1OC(C)=O`, the melting point is 277 to 278 °C. The compound `FC(F)(F)c1cc(Cl)c(-n2cc(I)c(C(F)(F)F)n2)c(Cl)c1` had a melting point of 109 to 112 °C. With `CC(=O)C(=Cc1cccc(C#N)c1)C(C)=O`, the melting point is 63 to 64 °C. As for `COc1cc2c(c3c1OC(C)(C)C3)C(c1cccc(Nc3cccnc3)c1)=NC(C)(C)C2`, the melting point lay in the range of 204 to 205 °C.

The compound `COC(=O)c1nc(-c2ccc(CF)cc2)cc(N)c1Cl` gave a melting point of 95 to 97 °C. Compound `CC(C)c1cccc(C(C)C)c1NC(=O)C(Cc1ccccc1)NC(=O)CCCCl` (stereo not given) came in with a melting point of 212 to 215 °C. Regarding `CCN(CC)C(=O)C(C)c1cc(-c2ccccc2)nc2ccccc12` (stereo not given), the melting point was determined as 132 °C. Regarding `Cc1ccc(C)c(-c2nsc3ccccc23)c1`, the melting point turned out to be 87 °C. The compound `COc1cc2c(Nc3ccc(Cl)cc3F)ncnc2cc1OCCS(C)(=O)=O` returned a melting point of 227 to 230 °C.

As to `C=C(c1ccc(C(=O)N(C)OC)cc1)C(O)(Cn1cncn1)c1ccc(F)cc1F` (stereo not given), the melting point lay within 154 to 156 °C. Regarding `Cc1cc(C)cc(C(=O)c2c(C(C)C)c(=O)[nH]c(=O)n2Cc2ccc(N)cc2)c1`, the melting point is 173 to 175 °C. For `CON(C)S(=O)(=O)NC(=O)Nc1nc(C)cc(C)n1`, the melting point amounted to 152 °C. In the case of `Clc1ccc(-n2ccc(OCc3ccccc3Br)n2)cc1`, the melting point turned out to be 45 °C.

`Clc1ccc(C2=NOCCS2)cc1` had a melting point of 80.5 to 81.5 °C. In the case of `COc1ccc(-c2sc3ncc(CO)c(O)c3c2C)cc1`, the melting point is above 300 °C. In the case of `CC(C)Oc1c(Br)c(Br)n(Cc2ccccc2)c1C(=O)Nc1nnn[nH]1`, the melting point fell in the range of 199 to 205 °C. For the compound `Cc1cccc(C)c1-c1cc(O)c(SCc2ccccc2)c(=O)o1`, the melting point lay in the range of 140 to 143 °C. For the compound `NC1(C(=O)O)CC(OC(=O)Nc2ccccc2F)C2C(C(=O)O)C21` (stereo not given), the melting point is 232 to 233 °C.

On to `NC(=O)Oc1ccccc1-c1nc2ccc(OCc3c(F)cccc3Cl)cc2s1`, for which the melting point was 227 °C. Turning to `COC(=O)C1(O)C(=O)Nc2ccc(C(F)(F)F)cc2CC1c1ccc(OC)cc1` (stereo not given), the melting point was in the range of 196 to 198 °C. In the case of `Cc1ccc(S(=O)(=O)NC(=O)OCCc2ccc(-n3c(-c4ccccc4)nc4c(C)nc(C)cc43)cc2)cc1`, the melting point is 194 °C. Regarding `O=c1cc(-c2cccs2)c2ccccc2[nH]1`, the melting point was 262 to 264 °C. Consider `NCCCCNC(=O)C1(NC(=O)CCCC(=O)O)Cc2ccccc2C1`, for which the melting point amounted to 132 °C. Turning to `Cn1cc(-c2ccccc2)nc1CO`, the melting point is 191 to 192 °C.

For the compound `NNC(=O)c1ccccc1CS(N)(=O)=O`, the melting point was in the range of 221 to 222 °C. The figure for `COc1cc2c(cc1Nc1ncc(Cl)c(Nc3ccccc3S(=O)(=O)C(C)C)n1)CCN(CC(=O)N1CCOCC1)CC2` is 100 °C; for `CC(Cc1sc2ccc(Cl)cc2c1Cl)=NO` it is 133 to 138 °C; for `CS(=O)(=O)c1cccc(NC(=O)c2cnn3c(C(F)(F)F)cc(-c4ccc(Cl)cc4)nc23)c1` it is 305 °C. The figure for `COC(=O)c1nn(Cc2ccccc2)c2c1CCc1cc(OCc3ccccc3)ccc1-2` is 168 to 169 °C.

The compound `O=C1c2ccccc2C2(Cc3ccccc3)NCCN12` (stereo not given) yielded a melting point of 115 to 117 °C. `O=C(c1ccc2c(c1)OCCO2)c1cc2ccccc2o1` showed a melting point of 68 to 70 °C. With `CCCCCCCCCCCCCCCCCCOc1cccc(N(CC(=O)O)CC(=O)O)c1` the figure was 130 to 133 °C; with `Cn1ccc(NC(=S)S)n1`, 79 to 82 °C. The compound `CC1CC2(C)C(CCC3C4CCC(C5(C)OCCO5)C4(C)CC(=O)C32)CC1=O` (stereo not given) displayed a melting point of 168 to 169 °C. `CS(=O)(=O)c1ccc(Br)cc1[N+](=O)[O-]` displayed a melting point of 175 to 177 °C. `COC(=O)CCCC(=O)N(CCc1c[nH]c2ccccc12)CC1CC1`: the melting point lay within 99 to 100 °C. Regarding `c1cn(CCC23CC4CC(CC(C4)C2)C3)cn1`, the melting point lay within 64 to 65 °C. Consider `CC[Si](C#Cc1ccc2nc(-n3ccnc3)nc(NCCOC)c2c1)(CC)CC`, for which the melting point fell in the range of 158 to 160 °C.

`O=C1NCCc2[nH]c3ccccc3c21` showed a melting point of 212 to 215 °C. In turn, `COC(=O)CCCCc1ccc(NC(=O)N(CCO)C2CCN(Cc3ccccc3)CC2)cc1` came in with a melting point of 118 to 120 °C.

(Values after a melting point compilation (Tetko et al.; mined from patent text by program, amines drawn as free bases though some values may be those of a salt).)
